# Assay results taken from patent US20040077607A1 (priority 2002, published 2004).
# Where “and” joins values, the source holds several entries; their conditions need not be identical. Equal values may be shown once. Read-outs that look alike come from different tables or passages of the source.
# Key:
# [1] = after i.v. 40 mg/kg d4T, Balb/c mice, plasma; mean ± S.E.M. (in parentheses)
# [2] = after oral 100 mg/kg d4T-5′-[p-bromophenyl methoxyalaninyl phosphate], Balb/c mice, plasma; mean ± S.E.M. (in parentheses)
# [3] = 37° C.
# in vivo [4] = conditions: female, Balb/c, mouse, po, 100 mg/kg, Balb/c mice, plasma; for AUC / Cmax / Tmax: after oral 100 mg/kg d4T-5′-[p-bromophenyl methoxyalaninyl phosphate]; for half-life: t1/2, after oral 100 mg/kg d4T-5′-[p-bromophenyl methoxyalaninyl phosphate]
# [5] = simulated intestinal fluid, 100 μM, 37° C.
# in vivo [6] = conditions: female, Balb/c, mouse, iv, 100 mg/kg
# in vivo [7] = conditions: female, Balb/c, mouse, iv, 75 mg/kg, Balb/c mice, plasma; for AUC / clearance / Cmax / Vd: after i.v. 75 mg/kg Ala-d4T-MP; for clearance: CL; for Vd: Vss; for half-life: t1/2, after i.v. 75 mg/kg Ala-d4T-MP
# [8] = not given; remark: listed apart in the source
# [9] = for mean percent hydrolysis in plasma: 250 μM
# [10] = test system: Josiach strain of Lassa Virus; set-up: species or system CBA mice; conditions: mouse, in vivo
# [11] = in vivo; cited from earlier work
# [12] = rat, in vivo; cited from earlier work
# [13] = mouse, in vivo; cited from earlier work
# [14] = dog, in vivo; cited from earlier work
# [15] = 100 μM, mouse liver homogenate
# [16] = female, Balb/c, mouse, in vivo, iv
# [17] = model fit after i.v. 75 mg/kg Ala-d4T-MP, C.V. of modeling in parentheses, 75 mg/kg
# [18] = estimate from composite pooled data
compound,measurement,setting,value
"Cc1cn([C@H]2C=C[C@@H](CO)O2)c(=O)[nH]c1=O [d4T, 2′,3′-didehydro-2′,3′-dideoxythymidine]",Tmax,"after i.v. 75 mg/kg Ala-d4T-MP, Balb/c mice, plasma, mean ± S.E.M. (in parentheses)",(5.0 ± 1.2) min
same,CLme (elimination of d4T derived from Ala-d4T-MP),[17],88.4 ml/min/kg and 88.4 (13.0%) ml/min/kg
same,AUC,[1],(12173.6 ± 559.5) μM · min
same,AUC,[2],(5928.4 ± 294.6) μM · min
same,Cmax,[2],29.5 µM
same,Tmax,[2],(45.2 ± 5.2) min
same,t1/2,[2],(102.6 ± 3.8) min
"Cc1cn([C@H]2C=C[C@@H](COP(=O)(O)N[C@@H](C)C(=O)O)O2)c(=O)[nH]c1=O [Ala-d4T-MP, alaninyl-d4T-monophosphate]",CLm1 as share of the total systemic clearance,after i.v. 75 mg/kg Ala-d4T-MP,99%
same,fraction converted to d4T,after intravenous administration of Ala-d4T-MP,15%
same,CLml (metabolic clearance of Ala-d4T-MP / formation clearance of d4T),[17],15.6 ml/min/kg and 15.6 (16.6%) ml/min/kg
same,CLpd (distribution of Ala-d4T-MP to the extravascular compartment),[17],4.7 ml/min/kg and 4.7 (44.7%) ml/min/kg
same,stability in whole blood,"[3]; 100 μM, for 1 day",stable
same,AUC,in vivo [4]; [18],22.5 µM·h
same,AUC,in vivo [4]; mean ± S.E.M. (in parentheses),22.6 µM·h
same,Cmax,in vivo [4]; [18],12.7 µM
same,Cmax,in vivo [4]; mean ± S.E.M. (in parentheses),15.6 µM
same,half-life,in vivo [4]; [18],66.4 min
same,half-life,in vivo [4]; mean ± S.E.M. (in parentheses),56.1 min
same,Tmax,in vivo [4]; [18],10.3 min
same,Tmax,in vivo [4]; mean ± S.E.M. (in parentheses),9.3 min
same,stability in intestinal fluid,[5],stable
same,AUC,in vivo [6]; AUC,47.6 µM·h
same,Cmax,in vivo [6]; Cmax,67.4 µM
same,half-life,in vivo [6]; t1/2,129 min
same,Tmax,in vivo [6]; tmax,5.9 min
same,AUC,in vivo [7]; [18],194 µM·h
same,AUC,in vivo [7]; mean ± S.E.M. (in parentheses),196 µM·h
same,clearance,in vivo [7]; [18],15.8 mL/min/kg
same,clearance,in vivo [7]; mean ± S.E.M. (in parentheses),15.7 mL/min/kg
same,Cmax,in vivo [7]; [18],1210 µM
same,Cmax,in vivo [7]; mean ± S.E.M. (in parentheses),1660 µM
same,Vd,in vivo [7]; [18],0.276 L/kg
same,Vd,in vivo [7]; mean ± S.E.M. (in parentheses),0.413 L/kg
same,half-life,in vivo [7]; [18],28.5 min
same,half-life,in vivo [7]; mean ± S.E.M. (in parentheses),91.5 min
same,stability in plasma,"[8]; 100 μM, for 1 day",stable
COC(=O)C(C)NP(=O)(OC[C@@H]1C=C[C@H](n2cc(C)c(=O)[nH]c2=O)O1)Oc1ccc(Br)cc1 (stereo partly drawn) [d4T-5′-[p-bromophenylmethoxyalaninyl phosphate]],mean percent hydrolysis in plasma,"[9]; EDTA (1 mM; arylesterase), 5 min",99%
same,mean percent hydrolysis in plasma,"[9]; EDTA (1 mM; arylesterase), 10 min",100%
same,mean percent hydrolysis in plasma,"[9]; EDTA (1 mM; arylesterase), 15 min",100%
same,mean percent hydrolysis in plasma,"[9]; EDTA (1 mM; arylesterase), 30 min",100%
same,mean percent hydrolysis in plasma,"[9]; EDTA (1 mM; arylesterase), 60 min",100%
same,mean percent hydrolysis in plasma,"[9]; EDTA (1 mM; arylesterase), 120 min",100%
same,"decomposition in plasma, effect of EDTA","[9]; EDTA, 37° C.",not affected
same,mean percent hydrolysis in plasma,"[9]; No inhibitor, 5 min",95%
same,mean percent hydrolysis in plasma,"[9]; No inhibitor, 10 min",98%
same,mean percent hydrolysis in plasma,"[9]; No inhibitor, 15 min",99%
same,mean percent hydrolysis in plasma,"[9]; No inhibitor, 30 min",100%
same,mean percent hydrolysis in plasma,"[9]; No inhibitor, 60 min",100%
same,mean percent hydrolysis in plasma,"[9]; No inhibitor, 120 min",100%
same,mean percent hydrolysis in plasma,"[9]; Physostigmine (0.1 mM; cholinesterase), 5 min",43%
same,mean percent hydrolysis in plasma,"[9]; Physostigmine (0.1 mM; cholinesterase), 10 min",65%
same,mean percent hydrolysis in plasma,"[9]; Physostigmine (0.1 mM; cholinesterase), 15 min",76%
same,mean percent hydrolysis in plasma,"[9]; Physostigmine (0.1 mM; cholinesterase), 30 min",89%
same,mean percent hydrolysis in plasma,"[9]; Physostigmine (0.1 mM; cholinesterase), 60 min",100%
same,mean percent hydrolysis in plasma,"[9]; Physostigmine (0.1 mM; cholinesterase), 120 min",100%
same,"decomposition in plasma, effect of physostigmine","[9]; physostigmine 0.1 mM, 37° C.",partially inhibited
same,median survival,[10],> 21 days
same,mice remaining healthy beyond the 21-day observation period,[10],9 mice
same,mice surviving beyond the 21 day observation period,[10],6 mice
same,probability of survival at 21 days,[10],75% and 90%
same,tolerability,[11],very well tolerated
same,acute or subacute toxicity,[12],very well tolerated without any detectable acute or subacute toxicity
same,toxicity on daily administration,[12],not associated with any detectable toxicity
same,stability in whole blood,[3]; 250 μM,very unstable
same,time to complete decomposition in whole blood,[3]; 250 μM,≤ 30 min
same,decomposed in whole blood,"[3]; 250 μM, 5 minutes",68%
same,decomposed in whole blood,"[3]; 250 μM, 10 minutes",87%
same,decomposed in whole blood,"[3]; 250 μM, 15 minutes",92%
same,decomposed in intestinal fluid,[5]; within 2 hours,approximately 94%
same,acute or subacute toxicity,[13],very well tolerated without any detectable acute or subacute toxicity
same,toxicity on daily administration,[13],not associated with any detectable toxicity
same,tolerability,[14],very well tolerated
same,time to decomposition after incubation with liver homogenate,[15],≤ 30 min
same,stability in plasma,[8]; 250 μM,very unstable
same,time to complete decomposition in plasma,[8]; 250 μM,≤ 30 min
same,decomposed following incubation with plasma,"[8]; 250 μM, after 5 minutes",over 95%
same,fraction converted to Ala-d4T-MP,[16],23%
same,fraction converted to d4T,[16],24%
